Earlier results, collected in patent US7816544B2, “Synthesis of rocaglamide natural products via photochemical generation of oxidopyrylium species” (Trustees of Boston University, priority 2004, dated 2010).

Tests used:
[1] = tested on: NF-κB; details: different mouse and human T cell lines; B. Baumann et al., J. Biol. Chem., 2002
[2] = tested on: human cancer cells; details: compared with Taxol; B. Y. Hwang et al., J. Org. Chem., 2004

Structure (SMILES)	inhibition of NF-κB activity / NF-κB-induced gene activation [1]	cytotoxic activity against human cancer cells [2]
COc1ccc([C@@]23Oc4cc(OC)cc(OC)c4[C@]2(O)[C@H](O)[C@H](C(=O)N(C)C)[C@H]3c2ccccc2)cc1 [Rocaglamide]	among the strongest inhibitors of NF-κB-induced gene activation known so far	–
COC(=O)[C@H]1[C@@H](O)[C@@]2(O)c3c(OC)cc(O[C@@H]4O[C@@H]([C@H](O)CO)CO[C@H]4OC)cc3O[C@@]2(c2ccc(OC)cc2)[C@@H]1c1ccccc1 [silvestrol 2, silvestrol]	–	comparable to the anticancer drug Taxol
